The record followed here is patent publication US20110212909A1, “Use of Ginsenoside Compound K in the Preparation of a Medicament for the Prevention and Treatment of Atherosclerosis” (priority 2008, published 2011).

The structures appear in SMILES notation. Marks after values point to notes of the source that are not given here.

Holding throughout (type): cell-based
For one assay, the system named is CD36 mRNA. The assay can be described thus: Real-time quantitative PCR of CD36 mRNA in foam cells. To be noted: 25 μM, rat foam cells. As to the method: FIG. 1 provides effects of a ginsenoside compound K (C-K, 25 μM) and pyrrolidine dithiocarbamate (PDTC, 25 μM) on the foam cell CD36 mRNA expression. a: P<0.05, vs foam cell group; b: P<0.05, vs PDTC. PDTC (25 μM) C-K (25 μM) (n=5).
(1) Material and reagents (the same as Example 2).
(2) real-time quantitative PCR analysis (a reference method: Zhang Yiguan, Li Xiaohui, Fan Jishan, Zhang Haigang, Li Shuhui, Liao Wenqiang, Pang Yan, Jia Yi. Total panax notoginsenosides suppress atherosclerosis formation in rats by means of antiinflammatory and blood fat regulating action. Progress in Modern Biomedicine. 2007, 27(11): 1601-1607).
(§1) Data was expressed as x±s, variance analysis were carried out between groups by SPSS 13.0 software.

The next assay relates to LXRα mRNA. Kind of assay: Real-time quantitative PCR of LXRα mRNA in foam cells. As to conditions: 25 μM, rat foam cells. The method, then: FIG. 5 provides effects of a ginsenoside compound K (C-K, 25 μM) and pyrrolidine dithiocarbamate (PDTC, 25 μM) on the foam cell LXRα mRNA expression. a: P<0.05, vs foam cell group. PDTC (25 μM) C-K (25 μM) (n=5).
(§2) (1) Material and reagents (the same as Examples 2).
(§3) (2) real-time quantitative PCR analysis (a reference method: Zhang Yiguan, Li Xiaohui, Fan Jishan, Zhang Haigang, Li Shuhui, Liao Wenqiang, Pang Yan, Jia Yi. Total panax notoginsenosides suppress atherosclerosis formation in rats by means of antiinflammatory and blood fat regulating action. Progress in Modern Biomedicine. 2007, 27 (11): 1601-1607).
as §1

The subject of the next assay is ABCA1 mRNA. The assay can be described thus: Real-time quantitative PCR of ABCA1 mRNA in foam cells. As to conditions: 25 μM, rat foam cells. The method, then: FIG. 4 provides effects of a ginsenoside compound K (C-K, 25 μM) and pyrrolidine dithiocarbamate (PDTC, 25 μM) on the foam cell ABCA1 mRNA expression. a: P<0.05, vs foam cell group. PDTC (25 μM) C-K (25 μM) (n=5).
as §2, §3, §1

For the next assay, the system named is perilipin mRNA. Kind of assay: Real-time quantitative PCR of perilipin mRNA in foam cells. To be noted: 25 μM, rat foam cells. The method, then: FIG. 2 provides effects of a ginsenoside compound K (C-K, 25 μM) and pyrrolidine dithiocarbamate (PDTC, 25 μM) on the foam cell perilipin mRNA expression.
a: P<0.05, vs. foam cells group. PDTC (25 μM) C-K (25 μM) (n=5).
as §2, §3, §1

For assay [1], the system named is macrophage-derived foam cells of rat abdominal cavity. The assay can be described thus: Assay of amount of TC and CE in ox-LDL induced macrophage-derived foam cells. The method, then: 1. Experiment animal: SD rats, male, 200-250 g, bought from the third Military Medical University Experiment Animal Center.
2. Reagents: RPMI 1640 culture medium free of phenol red bought from Invitrogen company; LDL (115 mg/mL) bought from Peking Union Medical College; total cholesterol kit and free cholesterol kit bought from Shanghai Mind Bioengineering Limited Company; ginsenoside compound K (hereinafter being called C-K for short. White powders, purity 99%), provided by Kunming Nuowei Jinshen Bioengineering limited company supply (batch number: NTGA070521, details see China invention patent 200710066011. X “a method of preparing rare ginsenoside compound K by streptomycete fermentation of Sanchi saponins”).
LDL was placed into PBS comprising 10 μM Cu^2+, dialysed at 37° C. for 12 h, then was placed into PBS comprising 0.01% EDTA, and dialysed at 4° C. for 24 hours before stopping oxidization, then was subjected to filtration sterilization, and stored for use.
4. Culture of macrophage and establishment of foam cells model (available literature: Jia Yi, Li Xiaohui, Xing Mao, Hei Xuefeng, Liu Ya, He Cuiyao. Studies on affect of various combinations of 3 sorts of monomers in total panax notoginsenosides on formation of mouse macrophage-derived foam cells. Journal of China Pharmacy, 2008, 19 (2), 881-883.)
each rat were intraperitoneally injected with 2 mL RPMI 1640 culture solution free of serum and phenol red, and it was sacrificed by cervical dislocation after 20 minutes, and was soaked in 75% ethanol for 10 minutes, then rat's belly was cut open, and fluids in abdominal cavity were collected, and centrifugated at 750 r/min for 5 minutes, and then cells were collected, and cells concentrations were adjusted to […] by using RPMI 1640 culture solution which were free of phenol red and comprised 10% Fetal Calf Serum. 10 pieces of 6 wells plate was added 1 mL cells suspension per well, and was placed into an incubator of 5% CO2 at 37 °C, and cultured for two hours, then supernatant was discarded, and nonadhesive cells was washed by using PBS. Original culture medium was discarded. Culture was carried out for 48 hours after adding 5 mL culture medium comprising 20 mg/L ox-LDL, and thereby foam cells were formed.
[…] were divided into ox-LDL model group, pyrrolidine dithiocarbamate (PDTC) (drugs source: Sigma), control group and C-K interference group. Each group had 5 pieces of plates. […]
Culture solution was aspirated, and lipid in foam cells was extracted by Folch method (reference: Folch J et al, A simple method for the isolation and purification of total lipides from animal tissues. J Biol Chem, 1957, 226 (1): 497-509), according to direction for use of kit.
Data was expressed as x±s, and variance analysis was carried out between groups by SPSS 13.0 software.

Regarding `CC(C)=CCC[C@](C)(OC1OC(CO)C(O)C(O)C1O)C1CC[C@]2(C)C1[C@H](O)CC1[C@@]3(C)CC[C@H](O)C(C)(C)C3CC[C@]12C` (stereo partly drawn) [C-K, 20-O-β-D-glucopyranosyl 20-(S)-protopanaxadiol], the “change of CD36 mRNA expression in foam cells compared with model group” value in the assay with CD36 mRNA is “not obvious”. The “expression of LXRα mRNA in foam cells compared with model group” value with LXRα mRNA is “significantly up-regulated”. Further, in the assay with ABCA1 mRNA, the “expression of ABCA1 mRNA in foam cells compared with model group” value is reported as “significantly up-regulated”. For the same compound, in the assay on perilipin mRNA, the “expression of perilipin mRNA in foam cells compared with model group” value is on record as “significantly down-regulated”. For the same compound, the “TC and CE amount in foam cells compared with model group” value in assay [1] (25 nM as printed in text) is “significantly lowered”. Besides, the “CE in foam cells” value in assay [1] (25 μM, 48 hours, rat foam cells, x ± s, n = 5, ox-LDL model group 15.24 ± 2.38) is 28.12 ± 3.12^a. The “CE/TC in foam cells” value in assay [1] (25 μM, 48 hours, rat foam cells, x ± s, n = 5, ox-LDL model group 59.56 ± 2.96) is 47.01 ± 3.80^a %. Further, in assay [1] (25 μM, 48 hours, rat foam cells, x ± s, n = 5, ox-LDL model group 87.20 ± 2.19), the “TC in foam cells” value is 59.72 ± 2.38^a.
